Source: patent US10358683B2, “Compositions and methods for determining whether a subject would benefit from co-receptor inhibitor therapy” (priority 2007, dated 2019)
Read-outs that look alike come from different tables or passages of the source.

Experiments:
[1] = test system: primarily CXCR4-tropic viruses; assay: Entry of pseudotyped viruses into U87 cells in presence of co-receptor inhibitors (FIG. 5); format: cell-based, HIV-1
Experimental: (§1) Susceptibility assays for HIV-1 entry inhibitors were performed using packaging host cells consisting of the human embryonic kidney cell line 293 (Cell Culture Facility, UC San Francisco, SF, Calif.) and target host cells consisting of a human osteosarcoma (HOS) cell line expressing CD4 (HT4) plus CCR5, and CXCR4, or astrocytoma (U-87) cell lines expressing either CD4 and CCR5 or CD4 and CXCR4.
(§2) Drug susceptibility testing was performed using pHIVenv and pHIVluc or pHIVlucΔU3. Pseudotyped HIV particles containing envelope proteins encoded by the subject derived segment were produced by transfecting a packaging host cell (HEK 293) with resistance test vector DNA. […] After infection (˜72 h) the target cells are lysed and luciferase activity is measured. […] The amount of luciferase activity detected in the infected cells is used as a direct measure of “infectivity” (FIGS. 1 and 2). […]
(§3) Drug susceptibility is assessed by comparing the infectivity in the absence of drug to infectivity in the presence of drug. […]
(§4) First, 35 gp160 envelope genes derived from different patient samples that were originally identified as dual-tropic were cloned into an expression vector as described in Example 1. Tropism of pseudotyped virus was determined by measuring luciferase activity (relative light units, RLU) following infection of U87/CD4+CCR5+ or U87/CD4+CXCR4+ cells as described above. […]

[2] = test system: Dual_X-tropic viruses; details: fully replication competent Dual_X-tropic viruses, PBMCs
Experimental: (§5) First, 35 gp160 envelope genes derived from different patient samples that were originally identified as dual-tropic were cloned into an expression vector as described in Example 1. Tropism of pseudotyped virus was determined by measuring luciferase activity (relative light units, RLU) following infection of U87/CD4+CCR5+ or U87/CD4+CXCR4+ cells as described above. Inhibition of infection by small molecule CCR5-(Merck) and CXCR4-(AMD3100; AnorMED) inhibitors was examined on U87/CD4+CCR5+CXCR4+ cells, U87/CD4+CXCR4+ cells, and U87/CD4+CCR5+ cells. A subset of the envelope genes were also inserted into an NL4-3 infectious clone and evaluated for their ability to infect PBMCs in the presence of the CCR5- or CXCR4-inhibitors.

[3] = test system: primarily CCR5-tropic viruses; format: cell-based, HIV-1; details: primarily CCR5-tropic viruses into CCR5- and CXCR4-expressing cells
Experimental: as §1, §2, §3, §4

[4] = test system: dual-tropic HIV-1 variants; details: for suppression of CXCR4-tropic virus: patients, 10 days of therapy
Experimental: First, samples from 26 subjects administered AMD3100 for 10 days were obtained prior to therapy and on day 11 following the 10 days of therapy. Co-receptor tropism of the viral populations from both sets of samples were then determined according to Example 1. […] 37(2):1253-62.

[5] = test system: dual-tropic viruses; assay: Infection of PBMCs by fully replication competent viruses (FIG. 7, summary); format: cell-based, HIV-1
Experimental: as §5

[6] = test system: Clone 28 (R5~X4_3); format: cell-based, HIV-1; details: PBMCs; Clone 28 envelope in NL4-3 infectious clone, tropism subtype R5~X4
Experimental: as §5

[7] = test system: Clone 11 (R5 >> X4_2); format: cell-based, HIV-1; details: PBMCs; Clone 11 envelope in NL4-3 infectious clone, tropism subtype R5 >> X4
Experimental: as §5

[8] = test system: Clone 26 (R5~X4_1); format: cell-based, HIV-1; details: PBMCs; Clone 26 envelope in NL4-3 infectious clone, tropism subtype R5~X4
Experimental: as §5

[9] = test system: Clone 22 (R5~X4_4); format: cell-based, HIV-1; details: PBMCs; Clone 22 envelope in NL4-3 infectious clone, tropism subtype R5~X4
Experimental: as §5

[10] = test system: Clone 31 (X4 >> R5_3); format: cell-based, HIV-1; details: PBMCs; Clone 31 envelope in NL4-3 infectious clone, tropism subtype X4 >> R5
Experimental: as §5

[11] = test system: Clone 33 (X4 >> R5_2); format: cell-based, HIV-1; details: PBMCs; Clone 33 envelope in NL4-3 infectious clone, tropism subtype X4 >> R5
Experimental: as §5

[12] = test system: JRCSF (R5); format: cell-based, HIV-1; details: PBMCs, tropism subtype R5
Experimental: as §5

[13] = test system: Clone 34 (X4 >> R5_1); format: cell-based, HIV-1; details: PBMCs; Clone 34 envelope in NL4-3 infectious clone, tropism subtype X4 >> R5
Experimental: as §5

[14] = test system: Clone 4 (R5 >> X4_1); format: cell-based, HIV-1; details: PBMCs; Clone 4 envelope in NL4-3 infectious clone, tropism subtype R5 >> X4
Experimental: as §5

[15] = test system: NL43 (X4); format: cell-based, HIV-1; details: PBMCs; NL43, tropism subtype X4
Experimental: as §5

[16] = test system: Clone 25 (R5~X4_2); format: cell-based, HIV-1; details: PBMCs; Clone 25 envelope in NL4-3 infectious clone, tropism subtype R5~X4
Experimental: as §5

[17] = subjects with mixed populations, following treatment

c1cc(CN2CCCNCCNCCCNCC2)ccc1CN1CCCNCCNCCCNCC1 [AMD, AMD3100]
inhibition of entry ([1]; primarily CXCR4-tropic viruses into CCR5- and CXCR4-expressing cells): inhibited | inhibition of entry ([1]; primarily CXCR4-tropic viruses into CXCR4-expressing cells): inhibited | inhibition of entry [2]: substantially inhibited | inhibition of entry [3]: not inhibited | suppression of CXCR4-tropic virus ([4]; populations comprising 100% dual viruses (homogeneous) at baseline): not suppressed | suppression of CXCR4-tropic virus ([4]; populations containing mixtures of CCR5-tropic and CXCR4-tropic or dual-tropic viruses at baseline): experienced suppression | entry into cells using the CXCR4 co-receptor [4, 17]: efficiently blocked | entry using the CCR5 co-receptor [4, 17]: unaffected | inhibition of entry [5]: partially inhibited | % inhibition [6]: 19% | % inhibition [7]: −3% | % inhibition [8]: 41% | % inhibition [9]: −12% | % inhibition [10]: 98% | % inhibition [11]: 99% | % inhibition [12]: 11% | % inhibition [13]: 99% | % inhibition [14]: −1% | % inhibition [15]: 99% | % inhibition [16]: 27%
